Results on one molecule are retold here after patent US20030170194A1, “Pharmaceutical and/or cosmetic composition containing an organosiloxane and a phospholipid” (priority 2000, published 2003).

This data set is classed as physicochemical. To be noted: composition of 10% by weight phospholipid and 90% by weight hexamethyldisiloxane.

With `Clc1ccccc1C(c1ccccc1)(c1ccccc1)n1ccnc1` [clotrimazole], the “dissolves in higher concentration than in hexamethyldisiloxane alone” value is reported as 10 fold.
